Results reported in ChEMBL document CHEMBL1128349 (J Med Chem, 1995).
pKi: −log10 of the molar value.

Experiments:
[1] = target: T1, Alpha-2A adrenergic receptor (Homo sapiens, UniProt P08913); assay: Ability to displace [3H]rauwolscine from cloned human Alpha-2A adrenergic receptor
T1 sequence (P08913 whole entry): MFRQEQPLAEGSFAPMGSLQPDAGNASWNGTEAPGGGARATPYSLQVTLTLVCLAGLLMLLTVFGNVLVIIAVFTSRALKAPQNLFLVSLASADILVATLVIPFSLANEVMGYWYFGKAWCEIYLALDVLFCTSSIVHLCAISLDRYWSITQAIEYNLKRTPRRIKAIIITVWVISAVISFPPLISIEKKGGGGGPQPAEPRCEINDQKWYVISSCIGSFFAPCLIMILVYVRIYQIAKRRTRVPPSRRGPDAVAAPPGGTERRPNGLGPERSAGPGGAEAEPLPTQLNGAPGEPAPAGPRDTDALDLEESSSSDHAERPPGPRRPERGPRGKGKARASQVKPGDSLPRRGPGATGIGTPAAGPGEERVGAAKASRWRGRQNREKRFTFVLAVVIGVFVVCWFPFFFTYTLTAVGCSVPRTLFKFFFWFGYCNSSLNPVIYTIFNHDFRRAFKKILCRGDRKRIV

[2] = target: Voltage-gated L-type calcium channel (Rattus norvegicus, UniProt P22002+Q02485+P27732); assay: Displacement of [3H]nitrendipine from rat brain L-type [Ca2+] channel; format: tissue-based
[3] = target: T2, Alpha-1D adrenergic receptor (Homo sapiens, UniProt P25100); assay: Ability to displace [3H]prazosin from cloned human Alpha-1D adrenergic receptor
T2 sequence (P25100 whole entry): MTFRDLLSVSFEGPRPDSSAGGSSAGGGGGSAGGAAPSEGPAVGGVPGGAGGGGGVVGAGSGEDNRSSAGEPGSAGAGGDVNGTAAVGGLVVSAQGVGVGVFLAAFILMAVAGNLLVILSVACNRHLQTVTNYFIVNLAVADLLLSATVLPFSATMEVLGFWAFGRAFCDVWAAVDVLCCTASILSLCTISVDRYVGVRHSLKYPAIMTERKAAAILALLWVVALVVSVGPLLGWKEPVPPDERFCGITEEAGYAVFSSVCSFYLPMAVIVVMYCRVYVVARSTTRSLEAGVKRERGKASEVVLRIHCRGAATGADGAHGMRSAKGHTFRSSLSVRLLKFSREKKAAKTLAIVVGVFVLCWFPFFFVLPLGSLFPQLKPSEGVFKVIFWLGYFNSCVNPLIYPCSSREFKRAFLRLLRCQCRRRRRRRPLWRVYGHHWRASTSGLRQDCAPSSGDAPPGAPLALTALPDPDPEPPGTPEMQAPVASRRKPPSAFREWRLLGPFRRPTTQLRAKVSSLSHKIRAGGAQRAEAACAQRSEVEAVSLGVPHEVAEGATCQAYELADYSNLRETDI

[4] = target: T3, Alpha-1A adrenergic receptor (Homo sapiens, UniProt P35348)
T3 sequence (P35348 whole entry): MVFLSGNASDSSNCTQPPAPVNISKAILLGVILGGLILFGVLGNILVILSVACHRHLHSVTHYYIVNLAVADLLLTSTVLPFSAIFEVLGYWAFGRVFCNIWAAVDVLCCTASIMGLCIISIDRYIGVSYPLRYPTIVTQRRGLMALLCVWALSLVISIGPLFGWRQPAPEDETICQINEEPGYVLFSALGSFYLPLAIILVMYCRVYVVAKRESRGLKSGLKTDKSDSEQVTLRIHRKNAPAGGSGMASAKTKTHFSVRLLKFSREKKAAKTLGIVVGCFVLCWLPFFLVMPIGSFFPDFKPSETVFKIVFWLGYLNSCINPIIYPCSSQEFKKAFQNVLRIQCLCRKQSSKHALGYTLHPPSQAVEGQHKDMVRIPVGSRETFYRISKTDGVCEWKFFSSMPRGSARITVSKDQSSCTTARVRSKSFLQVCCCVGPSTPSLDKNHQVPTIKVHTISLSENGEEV

[5] = target: T4, Alpha-2C adrenergic receptor (Homo sapiens, UniProt P18825); assay: Ability to displace [3H]rauwolscine from cloned human Alpha-2C adrenergic receptor
T4 sequence (P18825 whole entry): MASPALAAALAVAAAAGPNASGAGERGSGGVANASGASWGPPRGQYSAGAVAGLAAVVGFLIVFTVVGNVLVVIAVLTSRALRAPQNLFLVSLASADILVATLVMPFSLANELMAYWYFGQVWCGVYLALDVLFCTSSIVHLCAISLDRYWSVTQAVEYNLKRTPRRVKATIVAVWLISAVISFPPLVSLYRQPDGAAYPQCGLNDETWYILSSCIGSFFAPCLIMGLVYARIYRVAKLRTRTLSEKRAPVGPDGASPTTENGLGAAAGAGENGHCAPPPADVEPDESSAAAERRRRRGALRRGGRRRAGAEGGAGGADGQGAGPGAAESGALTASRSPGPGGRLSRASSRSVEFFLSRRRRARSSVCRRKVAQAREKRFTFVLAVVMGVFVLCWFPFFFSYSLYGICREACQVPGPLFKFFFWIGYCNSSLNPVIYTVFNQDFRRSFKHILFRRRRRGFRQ

[6] = target: T5, Alpha-1B adrenergic receptor (Homo sapiens, UniProt P35368); assay: Ability to displace [3H]prazosin from cloned human Alpha-1B adrenergic receptor
T5 sequence (P35368 whole entry): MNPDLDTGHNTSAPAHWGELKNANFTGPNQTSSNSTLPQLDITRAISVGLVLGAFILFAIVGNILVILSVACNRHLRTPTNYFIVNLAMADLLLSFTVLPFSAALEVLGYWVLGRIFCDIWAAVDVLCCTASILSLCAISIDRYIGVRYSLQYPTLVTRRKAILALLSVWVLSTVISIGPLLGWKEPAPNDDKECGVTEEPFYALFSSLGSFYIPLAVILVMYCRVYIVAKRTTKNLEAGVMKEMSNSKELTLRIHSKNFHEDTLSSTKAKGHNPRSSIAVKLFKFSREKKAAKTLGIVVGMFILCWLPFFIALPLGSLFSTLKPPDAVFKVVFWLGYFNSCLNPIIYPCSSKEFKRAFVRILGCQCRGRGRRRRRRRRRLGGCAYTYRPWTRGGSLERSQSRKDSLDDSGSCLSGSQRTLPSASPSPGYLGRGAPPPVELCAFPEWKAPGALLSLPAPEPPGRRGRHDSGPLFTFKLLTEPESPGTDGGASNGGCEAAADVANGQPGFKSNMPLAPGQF

[7] = target: T6, Alpha-2B adrenergic receptor (Homo sapiens, UniProt P18089)
T6 sequence (P18089 whole entry): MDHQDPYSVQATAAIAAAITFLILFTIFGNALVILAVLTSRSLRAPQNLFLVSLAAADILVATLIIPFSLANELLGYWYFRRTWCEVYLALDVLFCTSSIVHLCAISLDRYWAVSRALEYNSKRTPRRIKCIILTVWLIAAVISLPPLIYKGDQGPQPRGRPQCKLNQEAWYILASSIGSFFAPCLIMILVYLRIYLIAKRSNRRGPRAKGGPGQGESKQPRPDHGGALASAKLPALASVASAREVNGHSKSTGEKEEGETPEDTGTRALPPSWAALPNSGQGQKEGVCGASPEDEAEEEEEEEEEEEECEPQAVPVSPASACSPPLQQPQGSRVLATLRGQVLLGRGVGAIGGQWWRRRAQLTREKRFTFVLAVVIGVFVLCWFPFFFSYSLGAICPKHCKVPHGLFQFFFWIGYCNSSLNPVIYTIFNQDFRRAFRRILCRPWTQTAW

pKi [1]	Ki [2]	pKi [4]	pKi [5]	pKi [6]	pKi [7]	SMILES	pKi [3]
[…]	670 nM					CO/C(O)=C1\C(C)=NC(C)=C(C(=O)NCCCN2CCC(c3ccccc3)(c3ccccc3)CC2)[C@H]1c1ccc([N+](=O)[O-])cc1	
6.10	250 nM	9.49	6.52	7.30	6.24	CO/C(O)=C1\C(C)=NC(C)=C(C(=O)OCCCN2CCC(c3ccccc3)(c3ccccc3)CC2)C1c1ccc([N+](=O)[O-])cc1 (configuration not stated)	6.68
	> 10000 nM					COc1cc2nc(N3CCN(C(=O)c4ccco4)CC3)nc(N)c2cc1OC [PRAZOSIN]	

SMILES	pKi [1]	Ki [2]	pKi [4]	pKi [5]	pKi [6]	pKi [7]	pKi [3]
COc1cc2nc(N3CCN(C(=O)C4CCCO4)CC3)nc(N)c2cc1OC (configuration not stated) [TERAZOSIN]	6.26						8.43
